Measurements published in article PMC10122656, “Siglec-6 mediates the uptake of extracellular vesicles through a noncanonical glycolipid binding pocket” (Nature Communications, 2023).
“And” between values parts separate entries of the source, which are not always exact repeats. Equal entries are not always repeated.

Assays:
[1] = system: untransfected (UT) CHO cells; experiment: Cell assay (liposome/EV binding, flow cytometry);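 as to liposome binding, fluorescence signal (replicates): AF647 fluorescence intensity from 0.1 mol% AF647–PEG45–DSPE in liposomes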; format: cell-based, Chinese Hamster; settings: for log10(MFI AF647) of GLL relative to log10(MFI AF647) of the same GLL against UT CHO cells (Fig. 2a): 3 mol% ganglioside liposomes, replicates
Method: Stock lipids (DSPC, Cholesterol, PEG45–DSPE) solutions were prepared by solvating the lipids in chloroform. An appropriate volume of each lipid solution was transferred to a glass test tube to reach the desired mol% of the component. The chloroform was then removed under N2 gas to yield a lipid thin film. Once dry, 100 µL of DMSO was added to the lipid-containing test tube and then the functional lipids (ganglioside, AF647–PEG45–DSPE, Siglec ligand–PEG45–DSPE, pHrodo–PEG45–DSPE, NGL) was added from their respect DMSO stock solution. The lipid mixture was then stored at −80 °C until completely frozen at which point excess DMSO was removed via lyophilization. Dry lipids were then stored at −80 °C until they were extruded. Lipid suppliers can be found in Supplementary Table 4.
Dry lipids were then hydrated in 1 mL of PBS. The lipids were then sonicated in a bath sonicator in a cycle of 1 min on, 5 min off for a total of five cycles. Liposomes were then extruded using an Avanti mini extruder first using an 800 nm filter and then a 100 nm filter yielding liposomes that were 130 ± 35 nm (Supplementary Table 5) measured using a Malvern Panalytical Zetasizer Nano S. Liposomes were stored at 4 °C.
200,000 cells/well were plated into a 96-well U-bottom microplate and centrifuged at 300 × g for 5 min. The cells were then resuspended in 50 µL of 50 µM liposome/50 µg/mL (protein concentration) of EV solution in DMEM F12 5% FBS and incubated at 37 °C for 30 min. Excess liposomes were then removed via centrifuged at 300 × g for 5 min followed by washing the cells with FACS solution. The cells were then resuspended in (1:250 V/V) anti-Siglec-flow buffer (1% V/V FBS, 500 µM, EDTA Hank’s Balanced Salt Solution pH 7.4), solution and left to rest on ice for 30 min. The cells were then centrifuged again at 300 × g for 5 min and the cells were resuspended in FACS buffer solution and were then ready for analysis by flow cytometry. Information regarding antibody clone, catalog number supplier, label isotype, and dilution can be found in Supplementary Table 6. The Siglec-positive cells were gated on for liposome-binding analysis (Supplementary Fig. 1b).
Flow cytometry measurements were collected on a 5-laser Fortessa X-20 (BD Bioscience). All the resulting data were analyzed using FlowJo (10.5.3) software (BD Biosciences).

Siglec-1-Fc R116A = experiment: Ganglioside ELISA; format: binding, human; settings: Figure 2c, replicates
Siglec-1-Fc R116A, sequence (Q9BZZ2 20-136 R116A limits assumed): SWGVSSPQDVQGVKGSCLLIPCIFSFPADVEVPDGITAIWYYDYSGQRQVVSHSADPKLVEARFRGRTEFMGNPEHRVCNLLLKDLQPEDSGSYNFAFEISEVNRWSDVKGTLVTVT
Method: Siglec-Fc constructs designed by Rodrigues et al.[30] were used in this work. Siglec-Fc constructs were expressed using WT CHO cells in cell culture media as described above with 1% HEPES. Cells incubated as described above for one-week post confluency. The supernatant was harvested and stored at 4 °C.
The purification was heavily inspired by Rodrigues et al.[30]. The purification of the Siglec-Fcs from supernatant began with Ni^2+ affinity chromatography using an AKTA FPLC equipped with a HisTrap Excel column (GE). The column was equilibrated with fifteen column volumes (CVs) of equilibrium buffer (500 mM NaCl, 20 mM NaPO4H2, pH 7.4). The Siglec-Fc containing supernatant was then loaded in its entirety onto the column. The column was then washed with fifteen CVs of wash buffer (500 mM NaCl, 30 mM imidazole, 20 mM NaPO4H2, pH 7.4). The Siglec-Fc was then eluted in 20 in 1 mL fractions with twenty CVs of elution buffer (500 mM NaCl, 500 mM imidazole, 20 mM NaPO4H2, pH 7.4). […] A Strep-Tactin column (IBA life sciences) was washed with fifteen CVs of buffer W. The Siglec-Fc-buffer W solution was then loaded in its entirety onto the column. […] Fractions containing Siglec-Fc were pooled and dialyzed against PBS to remove any d-Desthiobiotin. After dialysis, Siglec-Fcs were concentrated using an ultra-centrifugal device (30 kDa MWCO) and aliquoted into 5 µg aliquots, and frozen. The Siglec-Fcs were then lyophilized overnight, and the lyophilized Siglec-Fcs were stored at −20 °C.
Our ELISA approach was carried out similarly to previous work by Rapoport[12] and Yamakawa[44]. Ganglioside ethanol solutions (10 µM) were prepared and then transferred in 50 µL increments to a 96-well microplate. The ethanol was removed by drying the plates overnight at room temperature. The plates were then washed with PBS, dried, and then blocked with 5% (m/V) BSA PBS for 1 h. The plates were then washed with PBS and then 2 µg/mL Siglec-Fc precomplexed to Strep-Tactin (2 Siglec-Fc:1 Strep-Tactin monomer) horse radish peroxidase was added to the microplate. The complex was incubated with the plate at room temperature for 2 h. The unbound complexes were then removed by washing in PBS and the plate was developed with Sera care TMB solution. The amount of binding was then quantified by using the background (microplate well with no ligand) subtracted absorbance at 450 nm using a Molecular Devices SpectraMAX ® iD5.

Compound	liposome binding, fluorescence signal (replicates) ([1]; sheet Figure S22b, CHO)	liposome binding, fluorescence signal (replicates) ([1]; sheet Figure S26a, 3% GM3-DAG liposomes, Untrans.)	liposome binding, fluorescence signal (replicates) ([1]; sheet Figure S28b, 3% GM3-DAG liposomes, UT)	liposome binding, fluorescence signal (replicates) ([1]; sheet Figure S26d, CHO)	ganglioside ELISA signal, Siglec-1 R (Siglec-1-Fc R116A)	log10(MFI AF647) of GLL relative to log10(MFI AF647) of the same GLL against UT CHO cells (Fig. 2a) ([1]; UT)
CCCCCCCCCCCCCCCCOCC(COCCCCCCCCCCCCCCCC)OCc1cn(CCO[C@@H]2O[C@H](CO)[C@@H](O[C@@H]3O[C@H](CO)[C@H](O)[C@H](O[C@]4(C(=O)O)C[C@H](O)[C@@H](NC(C)=O)[C@H]([C@H](O)[C@H](O)CO)O4)[C@H]3O)[C@H](O)[C@H]2O)nn1 [GM3-DAG]	267 and 269 and 241 and 218	298 and 293 and 301 and 291	268 and 273 and 248 and 260	38 and 35 and 41	–	–
GD1a	–	–	–	–	0.06 and 0.08 and 0.11 and 0.09	0.01 and -0.05 and 0 and 0.04
GD1b	–	–	–	–	0.11 and 0.13 and 0.17	0.01 (2×) and -0.01 (2×)
GD3	–	–	–	–	0.22 and 0.18 and 0.24 and 0.28	0.01 (2×) and -0.01 (2×)
GM1	–	–	–	–	0.07 and 0.08 and 0.1 and 0.14	0.07 and -0.03 (2×) and -0.01
GM2	–	–	–	–	0.07 and 0.09 and 0.15 and 0.11	0.1 and 0.05 (2×) and 0.06
GM3	–	–	–	–	0.33 and 0.4 and 0.43 and 0.46	0.01 (2×) and -0.01 and 0
GM4	–	–	–	–	0.18 and 0.21 and 0.26 and 0.27	0.02 and -0.01 (2×) and 0
GQ1b	–	–	–	–	-0.01 and -0.02 and 0	0.01 and -0.02 (2×) and 0.03
GT1b	–	–	–	–	0.02 and 0.04 and 0.03	0 (2×) and 0.01 and -0.01
